Assays:
HepG2 cells = assay: Confocal fluorescence imaging of HepG2 cells labeled with probe for different time intervals; assay type: cell-based; details: 10 μM; for cellular fluorescence intensity: 15, 30 and 60 min
Experimental: HepG2 Cells Labeled by NAIA-5 or IAA with Different Time Intervals for Imaging Experiments
HepG2 cells were plated on a 8-well Nunc Lab-Tek chambered slide system (ThermoFisher Scientific; 177402) and allowed to grow in complete medium at 37° C. with 5% CO2 to ca. 70% confluency. The cells were incubated with NAIA-5 and IAA (10 μM) respectively in complete medium for the indicated time interval, washed with PBS and then fixed by 4% paraformaldehyde in PBS at room temperature for 15 min. After washing with PBS, the fixed cells were permeabilized by PBS with 0.5 vol % Triton X-100 at room temperature for 30 min. The cells were then washed and incubated with a master mix solution containing CuSO4, THTPA, azide-fluor 545 and sodium ascorbate at final concentrations of 100, 500, 20 and 5000 μM respectively. After incubation in dark at room temperature for 1 h, the cells were washed with PBS and stained by Hoechst 33342 in PBS (final concentration=8.2 μM) at room temperature for 15 min. The cells were washed thrice with PBS and then imaged by confocal fluorescence microscopy. Hoechst 33342 was excited with a 405 nm diode laser, and emission was collected on a META detector between 371 and 507 nm. Fluor 545 was excited by a 561 nm diode laser and emission was collected on a META detector between 576 and 683 nm. Image analysis was performed by use of ImageJ. A region of interest (ROI) was created around individual cell, and cellular fluorescence intensity was measured. The reported average cellular fluorescence intensity was determined by averaging the measured intensity from 30 different cells from 3 different biological replicates/group. Statistical analyses were performed with a two-tailed Student's t-test (MS Excel).
Confocal fluorescence microscopy imaging was performed with a Zeiss laser scanning microscope 880 with a 20× water-immersion objective lens using ZEN 2.3 (Black Version) software (Carl Zeiss) with 3× magnification zoom-in. Hoechst 33342 was excited with a 405 nm diode laser, and emission was collected on a META detector between 371 and 507 nm. Fluor 545 was excited by a 561 nm diode laser and emission was collected on a META detector between 576 and 683 nm. Image analysis was performed by use of ImageJ. A region of interest (ROI) was created around individual cell, and cellular fluorescence intensity was measured. The reported average cellular fluorescence intensity was determined by averaging the measured intensity from 30 different cells from 3 different biological replicates/group. Statistical analyses were performed with a two-tailed Student's t-test (MS Excel).
To examine the underlying mechanism of better cysteine labeling in live cells by NAIA, we conducted confocal fluorescence imaging experiments on HepG2 cells treated with NAIA-5 and IAA respectively (both at 10 μM). After treatment for the indicated time intervals, the cells were washed with PBS, fixed by 4% paraformaldehyde in PBS and reacted with azide-fluor 545 through CuAAC. The stained cells were then washed with PBS and imaged by confocal fluorescence microscopy. […] In view of the fast and better labeling of reactive cysteines in live cells, we anticipate that NAIAs can be good candidates for capturing cysteines with dynamic changes in reactivity/modifications in cells. The ability of NAIAs to work nicely with confocal fluorescence microscopic imaging also illustrates their potential application as imaging probes for cellular cysteine reactivity. […]

231MFP cells = assay: WST-8 cell viability assay; assay type: cell-based
Experimental: WST-8 Cell Viability Assay of Cells Treated with NAIA-4 or IAA
231MFP cells were plated on 96-well plates (Corning, 3904) at 30,000 cells per well and allowed to grow in complete medium overnight. The cells were then incubated with DMSO solvent control, NAIA-4 or IAA at indicated concentrations for 2 h. The solution was replaced with new culture medium containing 10 μL of WST-8 solution (Abcam; ab228554) and incubated for 2 h in dark at 37° C. Cell viability were then assayed by the absorption at 460 nm on SpectraMax i3 (Molecular Devices).

[1] = Stability in aqueous buffer solution over time (LC-MS); assay type: physicochemical
Experimental: Stability of NAIA-5 in Aqueous Buffer Solution Over Time
NAIA-5 (10 μM) was dissolved in PBS/MeOH solution mixture (4:1, v/v; 500 μL) and stay at room temperature. At predetermined time intervals, an aliquot of the reaction mixture (10 μL) was sent for LC-MS analysis on Waters Autopurification System using a SunFire C18 HPLC column (50×4.6 mm with 5 μm diameter particles, Waters). Separation was achieved by gradient elution from 5% to 100% MeCN in water (constant 0.1 vol % formic acid) over 4 min, isocratic elution with 100% MeCN (with 0.1 vol % formic acid) from 4 to 8 min and returning to 5% MeCN in water (with 0.1 vol % formic acid) and equilibrated for 2 min. Selected ion chromatograms, with m/z=325 corresponding to [NAIA-5+H]^+, were extracted and analyzed by integrating the area under curve.
As fast-reacting probes are often susceptible to hydrolysis, we sought to investigate the aqueous stability of NAIA-C5 amide. […] Taking the excellent reaction kinetics and a mere 14% degradation in 30 min into account, NAIA-C5 amide was considered to be a useful tool in cysteine profiling (FIG. 17C and FIG. 17F).

| cellular permeability (HepG2 cells; inferred from live-cell imaging) | time stable in PBS solution ([1]; pH 7.4, absence of Cys) [h] | Structure (SMILES) | labeling of cytosolic and nuclear proteins (colocalization with Hoechst channel) (HepG2 cells) | cellular fluorescence intensity (HepG2 cells) | cytotoxicity (in words) (231MFP cells) | change of compound level in aqueous buffer solution over time (in words) ([1]; 10 μM, PBS/MeOH 4:1, room temperature) |
| --- | --- | --- | --- | --- | --- | --- |
| – | – | C#CCCCCNC(=O)CI [IAA, N-Hex-5-ynyl-2-iodoacetamide, reference compound] | lower Manders' colocalization coefficient | much weaker fluorescence at 15 min | high cellular cytotoxicity | – |
| good cellular permeability | ≥ 3 | C#CCCCCNC(=O)COc1ccc2c(ccn2C(=O)C=C)c1 [NAIA-5] | good labeling of proteins in both cytosol and nucleus | Significantly higher fluorescence intensities were found in cells treated with NAIA-5 than IAA | – | No significant changes in NAIA-5 level in the aqueous buffer solution over time |
